Where two headings read alike, the source gives them in different places.
What was measured:
Assay type in all cases: cell-based
[1] = target: T1, EGFR L858R (NCI-H3255) (Homo sapiens, UniProt P00533, L858R); assay: pEGFR Y1068 ELISA assay, NCI-H3255 cells
T1 construct: detects endogenous levels of phospho-EGF Receptor (Tyr1068) protein; host or cells: NCI-H3255
Protocol: (§1) The PathScan® Phospho-EGF Receptor (Tyr1068) Sandwich ELISA Kit is a solid phase sandwich enzyme-linked immunosorbent assay (ELISA) that detects endogenous levels of phospho-EGF Receptor (Tyr1068) protein. […] NCI-H3255 cells were licensed from NCI. […] All cells were cultured according to ATCC recommendations. A549, NCI-H1975, PC9, and NCI-H3255 cells were grown in RPMI media (Invitrogen, Carlsbad, Calif.) supplemented with 10% FBS (Sigma, St Louis, Mo.), and with 1% Penn/Strep (Invitrogen).
(§2) Each compound was prepared as a DMSO stock solution (10 mM). Compounds were tested in duplicate on each plate, with an 11-point serial dilution curve (1:3 dilution). Compound treatment (50 μL) was added from the compound dilution plate to the cell plate. […] Plates were then incubated for 2 hr at 37° C., 5% CO2. […] The wash was then flicked off and ice-cold lysis buffer was added to the cells (50 μL/well). The plate was shaken for 20-30 min at 4° C. to completely lyse the cells. Sample diluent (50 μL/well) was added to the ELISA plate, and the lysate (50 μL) was diluted into the sample diluent in each well of the ELISA plate. Plates were sealed and incubated overnight at 4° C. with shaking. The next day, wells were washed four times with 1× Wash Buffer; plates were taped on lint-free paper after the final wash prior to adding Add Detection Antibody (green, 100 μL/well) to each well and incubating for 1 hr at 37° C. After incubation, wells were washed as described. HRP-Linked secondary antibody (red, 100 μL/well) was added to each well and incubated for 30 min at 37° C. After incubation, the wells were washed as described. TMB Substrate (100 μL/well) was added to each well and the plate incubated for 10 min at 37° C. or 30 min at rt maximum. Stop Solution (100 μL/well) was added to each well at the end of the incubation and plates were shaken gently for a few seconds. […] Data were analyzed using a four-parameter fit in Microsoft Excel.

[2] = target: T2, EGFR L858R+T790M, endogenous (NCI-H1975) (Homo sapiens, UniProt P00533, L858R/T790M); assay: pEGFR Y1068 ELISA assay, NCI-H1975 cells; conditions: inhibition of phosphorylation of EGFR at Tyr1068; NCI-H1975 NSCLC cells; 2 hr compound incubation
T2 construct: NCI-H1975 (EGFR L858R+T790M, endogenous); host or cells: NCI-H1975

[3] = target: T3, EGFR del/T790M (PC9-DRH) (Homo sapiens, UniProt P00533, DEL746-750/T790M); assay: pEGFR Y1068 ELISA assay, PC9-DRH cells; conditions: inhibition of phosphorylation of EGFR at Tyr1068; PC9-DRH cells (dacomitinib resistant); 2 hr compound incubation
T3 construct: detects endogenous levels of phospho-EGF Receptor (Tyr1068) protein; endogenous in cells; host or cells: PC9-DRH (dacomitinib-resistant derivative of PC9, generated in house)

[4] = target: T4, EGFR del (PC9) (Homo sapiens, UniProt P00533, DEL746-750); assay: pEGFR Y1068 ELISA assay, PC9 cells; conditions: inhibition of phosphorylation of EGFR at Tyr1068; PC9 NSCLC cells; 2 hr compound incubation
T4 construct: detects endogenous levels of phospho-EGF Receptor (Tyr1068) protein; host or cells: PC9
Protocol: as §1, §2

[5] = target: T5, EGFR wildtype, endogenous (A549) (Homo sapiens, UniProt P00533); assay: pEGFR Y1068 ELISA assay, A549 cells; conditions: inhibition of phosphorylation of EGFR at Tyr1068; A549 NSCLC cells; 2 hr compound incubation, then stimulated 10 min with EGF (40 ng/mL)
T5 construct: A549 (EGFR wildtype, endogenous); host or cells: A549 (stimulated with EGF)
Protocol: Phosphorylation of EGFR at Y1068 was measured by PathScan® Phospho-EGF Receptor (Try1068) Sandwich ELISA kit (#7240, Cell Signaling Technology®, Danvers, Mass.). The PathScan® Phospho-EGF Receptor (Tyr1068) Sandwich ELISA Kit is a solid phase sandwich enzyme-linked immunosorbent assay (ELISA) that detects endogenous levels of phospho-EGF Receptor (Tyr1068) protein. […] All cells were cultured according to ATCC recommendations. A549, NCI-H1975, PC9, and NCI-H3255 cells were grown in RPMI media (Invitrogen, Carlsbad, Calif.) supplemented with 10% FBS (Sigma, St Louis, Mo.), and with 1% Penn/Strep (Invitrogen). PC9-DRH cells were grown in RPMI with 10% FBS and 1 μM dacomitinib.
Cells were plated at 40,000/well in complete culture media (50 μL/well) on the bottom of clear tissue culture treated microtiter plates (#3595, Corning Inc, Corning, N.Y.) and allowed to adhere overnight at 37° C., 5% CO2. The following day, compound dilution plates were prepared in 96 well clear V-bottom 0.5 mL polypropylene block plates (#3956, Corning, Inc). Each compound was prepared as a DMSO stock solution (10 mM). Compounds were tested in duplicate on each plate, with an 11-point serial dilution curve (1:3 dilution). Compound treatment (50 μL) was added from the compound dilution plate to the cell plate. […] Plates were then incubated for 2 hr at 37° C., 5% CO2. For A549 (EGFR wildtype) assay, cells were plated in full-serum (10%) media for 24 hr prior to compound treatment; cells were treated in full serum media as described and then stimulated for 10 min with EGF (40 ng/mL/starvation media, Invitrogen). Immediately prior to the end of the incubation, ice-cold lysis buffer was prepared (1× Cell Lysis Buffer (#9803, Cell Signaling Technology), 1 mM sodium orthovanadate (Na3VO4, #96508, Sigma), 1 mM phenylmethanesulfonyl fluoride (PMSF, 52332, CalBiochem/EMD Chemicals), complete Mini EDTA-free Protease Inhibitor Cocktail Tablet (1 tablet/10 mL, #11836170001, Roche, Indianapolis, Ind.), and PhosSTOP Phosphatase Inhibitor Cocktail Tablet (1 tablet/10 mL, #04906837001, Roche) in pure water. At the end of 2 hr, media was flicked off and cells were washed once with ice-cold 1 mM Na3VO4 in PBS (100 μL/well, Invitrogen). The wash was then flicked off and ice-cold lysis buffer was added to the cells (50 μL/well). The plate was shaken for 20-30 min at 4° C. to completely lyse the cells. Sample diluent (50 μL/well) was added to the ELISA plate, and the lysate (50 μL) was diluted into the sample diluent in each well of the ELISA plate. Plates were sealed and incubated overnight at 4° C. with shaking. The next day, wells were washed four times with 1× Wash Buffer; plates were taped on lint-free paper after the final wash prior to adding Add Detection Antibody (green, 100 μL/well) to each well and incubating for 1 hr at 37° C. After incubation, wells were washed as described. HRP-Linked secondary antibody (red, 100 μL/well) was added to each well and incubated for 30 min at 37° C. After incubation, the wells were washed as described. TMB Substrate (100 μL/well) was added to each well and the plate incubated for 10 min at 37° C. or 30 min at rt maximum. Stop Solution (100 μL/well) was added to each well at the end of the incubation and plates were shaken gently for a few seconds. Absorbance was read at 450 nm within 30 min after addition of Stop Solution on a PerkinElmer EnVision Excite Multilabel Reader Method for Absorbance or on a Molecular Devices SpectraMax^384 Reader for absorbance. Data were analyzed using a four-parameter fit in Microsoft Excel.

[6] = inhibition of phosphorylation of EGFR at Tyr1068, NCI-H3255 NSCLC cells, 2 hr compound incubation

T5 sequence (P00533 25-1210): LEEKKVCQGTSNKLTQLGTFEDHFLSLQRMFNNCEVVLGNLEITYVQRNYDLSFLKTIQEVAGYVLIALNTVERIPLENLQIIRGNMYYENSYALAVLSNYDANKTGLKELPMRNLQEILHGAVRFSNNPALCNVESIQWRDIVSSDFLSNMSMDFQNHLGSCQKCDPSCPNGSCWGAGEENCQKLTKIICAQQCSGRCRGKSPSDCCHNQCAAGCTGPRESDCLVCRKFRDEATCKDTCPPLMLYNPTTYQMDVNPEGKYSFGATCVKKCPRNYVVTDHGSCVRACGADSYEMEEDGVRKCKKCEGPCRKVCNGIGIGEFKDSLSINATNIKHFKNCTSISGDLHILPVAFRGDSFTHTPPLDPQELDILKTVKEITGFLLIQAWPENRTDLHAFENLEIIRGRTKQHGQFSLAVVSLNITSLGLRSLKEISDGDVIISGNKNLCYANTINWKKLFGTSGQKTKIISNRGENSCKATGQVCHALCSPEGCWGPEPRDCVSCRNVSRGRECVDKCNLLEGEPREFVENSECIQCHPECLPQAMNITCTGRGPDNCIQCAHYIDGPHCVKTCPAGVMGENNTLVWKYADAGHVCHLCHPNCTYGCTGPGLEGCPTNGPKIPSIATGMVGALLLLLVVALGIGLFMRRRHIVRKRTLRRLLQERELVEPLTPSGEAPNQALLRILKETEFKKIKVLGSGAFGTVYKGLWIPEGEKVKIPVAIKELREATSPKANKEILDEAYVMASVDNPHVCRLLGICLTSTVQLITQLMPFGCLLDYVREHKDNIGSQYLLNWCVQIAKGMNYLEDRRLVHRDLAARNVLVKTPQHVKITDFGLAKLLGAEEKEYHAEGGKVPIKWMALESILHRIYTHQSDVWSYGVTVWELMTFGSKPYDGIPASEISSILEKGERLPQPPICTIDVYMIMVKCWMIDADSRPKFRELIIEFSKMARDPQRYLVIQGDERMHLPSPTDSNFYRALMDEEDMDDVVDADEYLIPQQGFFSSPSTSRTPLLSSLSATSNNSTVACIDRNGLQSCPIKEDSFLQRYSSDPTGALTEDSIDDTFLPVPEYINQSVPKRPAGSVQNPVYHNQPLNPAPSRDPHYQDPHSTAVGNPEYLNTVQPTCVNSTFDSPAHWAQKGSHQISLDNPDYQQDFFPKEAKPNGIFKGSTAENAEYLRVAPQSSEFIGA
T2 sequence (P00533 25-1210 T790M/L858R): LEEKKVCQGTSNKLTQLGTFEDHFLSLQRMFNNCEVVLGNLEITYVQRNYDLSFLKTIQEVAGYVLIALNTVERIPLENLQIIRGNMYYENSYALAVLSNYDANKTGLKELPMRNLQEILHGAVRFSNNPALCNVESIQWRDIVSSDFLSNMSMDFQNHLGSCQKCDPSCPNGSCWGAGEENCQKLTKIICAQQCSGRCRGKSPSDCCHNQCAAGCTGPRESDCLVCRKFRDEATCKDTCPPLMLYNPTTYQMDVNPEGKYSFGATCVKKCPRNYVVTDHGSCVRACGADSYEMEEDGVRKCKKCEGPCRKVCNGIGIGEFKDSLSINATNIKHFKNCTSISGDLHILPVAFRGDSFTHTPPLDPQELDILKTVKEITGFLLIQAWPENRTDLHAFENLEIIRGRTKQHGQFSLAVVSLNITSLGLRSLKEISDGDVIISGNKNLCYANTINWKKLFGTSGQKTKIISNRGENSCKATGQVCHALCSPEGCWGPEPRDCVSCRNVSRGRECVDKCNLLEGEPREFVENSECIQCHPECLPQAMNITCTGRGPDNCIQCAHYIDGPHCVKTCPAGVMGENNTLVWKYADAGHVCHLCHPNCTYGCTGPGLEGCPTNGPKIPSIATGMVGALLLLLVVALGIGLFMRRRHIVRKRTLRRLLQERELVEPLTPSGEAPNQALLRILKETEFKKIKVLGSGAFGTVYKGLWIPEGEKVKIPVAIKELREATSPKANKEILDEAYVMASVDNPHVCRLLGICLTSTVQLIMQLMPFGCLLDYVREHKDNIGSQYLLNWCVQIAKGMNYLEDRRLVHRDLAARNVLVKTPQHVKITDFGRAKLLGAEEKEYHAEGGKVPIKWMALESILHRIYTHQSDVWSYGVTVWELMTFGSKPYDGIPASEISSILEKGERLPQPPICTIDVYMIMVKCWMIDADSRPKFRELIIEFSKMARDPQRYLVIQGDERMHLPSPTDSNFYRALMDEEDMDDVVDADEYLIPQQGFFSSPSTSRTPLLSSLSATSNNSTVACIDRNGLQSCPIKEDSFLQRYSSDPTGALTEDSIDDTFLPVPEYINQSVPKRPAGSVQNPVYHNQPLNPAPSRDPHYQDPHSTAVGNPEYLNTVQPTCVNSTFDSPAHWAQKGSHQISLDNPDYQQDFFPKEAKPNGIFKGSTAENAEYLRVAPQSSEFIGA
T4 sequence (P00533 with tags, fused parts or gaps DEL746-750): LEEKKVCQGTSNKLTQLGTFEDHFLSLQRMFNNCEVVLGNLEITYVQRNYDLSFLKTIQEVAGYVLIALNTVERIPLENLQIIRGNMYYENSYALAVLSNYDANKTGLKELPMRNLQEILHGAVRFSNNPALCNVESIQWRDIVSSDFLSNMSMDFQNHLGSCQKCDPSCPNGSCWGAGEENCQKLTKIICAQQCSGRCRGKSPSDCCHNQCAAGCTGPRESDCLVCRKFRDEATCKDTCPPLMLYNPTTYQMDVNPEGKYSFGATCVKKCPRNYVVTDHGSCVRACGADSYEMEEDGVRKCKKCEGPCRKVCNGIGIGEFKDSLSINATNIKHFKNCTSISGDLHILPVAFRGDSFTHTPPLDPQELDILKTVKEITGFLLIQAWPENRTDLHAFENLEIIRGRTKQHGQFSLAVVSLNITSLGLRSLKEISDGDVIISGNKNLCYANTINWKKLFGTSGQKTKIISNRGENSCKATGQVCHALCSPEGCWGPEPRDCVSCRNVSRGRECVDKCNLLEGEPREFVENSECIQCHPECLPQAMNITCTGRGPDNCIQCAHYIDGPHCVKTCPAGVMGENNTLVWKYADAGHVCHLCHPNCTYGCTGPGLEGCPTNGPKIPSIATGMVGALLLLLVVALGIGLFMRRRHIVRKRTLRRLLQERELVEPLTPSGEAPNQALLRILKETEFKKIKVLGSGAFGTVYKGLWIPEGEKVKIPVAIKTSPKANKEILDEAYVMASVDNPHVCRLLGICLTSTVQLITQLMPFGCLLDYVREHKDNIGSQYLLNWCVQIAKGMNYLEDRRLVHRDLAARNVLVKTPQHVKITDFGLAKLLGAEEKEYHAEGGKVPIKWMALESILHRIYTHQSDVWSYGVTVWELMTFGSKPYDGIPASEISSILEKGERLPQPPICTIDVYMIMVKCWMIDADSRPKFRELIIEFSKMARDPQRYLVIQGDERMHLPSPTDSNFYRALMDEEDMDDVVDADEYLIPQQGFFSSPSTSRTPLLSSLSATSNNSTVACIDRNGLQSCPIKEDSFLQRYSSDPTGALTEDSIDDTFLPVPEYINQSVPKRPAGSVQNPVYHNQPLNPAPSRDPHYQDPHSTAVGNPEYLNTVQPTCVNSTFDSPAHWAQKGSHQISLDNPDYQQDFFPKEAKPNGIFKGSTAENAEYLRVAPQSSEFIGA
T3 sequence (P00533 with tags, fused parts or gaps DEL746-750/T790M): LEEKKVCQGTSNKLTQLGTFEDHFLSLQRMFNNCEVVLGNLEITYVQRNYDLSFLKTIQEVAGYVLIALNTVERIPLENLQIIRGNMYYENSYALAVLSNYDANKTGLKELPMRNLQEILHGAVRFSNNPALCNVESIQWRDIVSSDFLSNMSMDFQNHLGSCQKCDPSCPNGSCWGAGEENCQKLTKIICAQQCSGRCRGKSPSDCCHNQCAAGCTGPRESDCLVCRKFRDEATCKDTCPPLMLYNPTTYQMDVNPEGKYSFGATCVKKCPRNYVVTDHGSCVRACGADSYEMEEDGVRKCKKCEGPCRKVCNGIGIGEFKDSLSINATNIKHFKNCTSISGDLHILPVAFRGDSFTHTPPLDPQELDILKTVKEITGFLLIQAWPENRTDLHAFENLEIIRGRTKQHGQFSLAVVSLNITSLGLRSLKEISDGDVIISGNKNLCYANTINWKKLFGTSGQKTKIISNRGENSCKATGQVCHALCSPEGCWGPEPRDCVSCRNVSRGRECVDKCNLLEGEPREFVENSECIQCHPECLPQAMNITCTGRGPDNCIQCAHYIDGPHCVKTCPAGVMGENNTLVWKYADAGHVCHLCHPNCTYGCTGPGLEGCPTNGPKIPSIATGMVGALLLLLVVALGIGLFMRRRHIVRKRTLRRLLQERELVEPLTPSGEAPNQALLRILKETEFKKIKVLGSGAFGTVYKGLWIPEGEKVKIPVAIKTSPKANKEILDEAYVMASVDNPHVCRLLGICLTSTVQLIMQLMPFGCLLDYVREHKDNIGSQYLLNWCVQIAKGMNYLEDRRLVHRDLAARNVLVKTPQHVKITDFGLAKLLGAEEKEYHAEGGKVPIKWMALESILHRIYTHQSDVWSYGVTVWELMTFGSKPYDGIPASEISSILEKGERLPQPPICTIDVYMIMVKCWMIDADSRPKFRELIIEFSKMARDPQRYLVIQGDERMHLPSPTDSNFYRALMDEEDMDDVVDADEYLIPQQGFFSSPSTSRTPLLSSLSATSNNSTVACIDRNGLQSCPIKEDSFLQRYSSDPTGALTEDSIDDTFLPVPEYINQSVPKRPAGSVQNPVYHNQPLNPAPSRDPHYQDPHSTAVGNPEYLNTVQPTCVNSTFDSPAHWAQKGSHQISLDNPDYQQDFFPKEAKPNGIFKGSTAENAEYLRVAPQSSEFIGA

Compound	IC50 [1] [nM]	IC50 [2] [nM]	IC50 [3] [nM]	IC50 [4] [nM]	IC50 [5] [nM]	IC50 [1, 6] [nM]
C=CC(=O)N[C@@H]1CN(c2nc(Nc3cn(C4CCN(C)C4)nc3OC)c3ncn(C)c3n2)C[C@H]1F (stereo partly drawn) [Example 79, N-((3R,4R)-4-fluoro-1-(6-((3-methoxy-1-(1-methylpyrrolidin-3-yl)-1H-pyrazol-4-yl)amino)-9-methyl-9H-purin-2-yl)pyrrolidin-3-yl)acrylamide]	3	6	1	3	100	–
C=CC(=O)N[C@H]1CCN(c2nc(Nc3ccc(N4CCN(C)CC4)cc3)c3ncn(C(C)C)c3n2)C1 [Example 1, (S)-N-(1-(9-isopropyl-6-((4-(4-methylpiperazin-1-yl)phenyl)amino)-9H-purin-2-yl)pyrrolidin-3-yl)acrylamide]	19	19	18	22	277	–
C=CC(=O)N[C@@H]1CN(c2nc(Nc3cn(C4CCN(C)C4)nc3C)c3ncn(C)c3n2)C[C@H]1F (stereo partly drawn) [Example 81, N-((3R,4R)-4-fluoro-1-(9-methyl-6-((3-methyl-1-(1-methylpyrrolidin-3-yl)-1H -pyrazol-4-yl)amino)-9H-purin-2-yl)pyrrolidin-3-yl)acrylamide]	15	19	8	21	575	–
C=CC(=O)N[C@@H]1CN(c2nc(Nc3cn(CC)nc3OC)c3ncn(C)c3n2)C[C@H]1F [Example 88, N-((3R,4R)-1-(6-((1-ethyl-3-methoxy-1H-pyrazol-4-yl)amino)-9-methyl-9H-purin-2-yl)-4-fluoropyrrolidin-3-yl)acrylamide]	–	6	1	6	194	2
C=CC(=O)NC1(C)CN(c2nc(Nc3cnn(C)c3)c3ncn(C(C)C)c3n2)C1 [Example 13, N-(1-(9-isopropyl-6((1-methyl-1H-pyrazol-4-yl)amino)-9H-purin-2-yl)-3-methylazetidin-3-yl)acrylamide]	80	40	25	40	2440	–
C=CC(=O)N[C@@H]1CN(c2nc(Nc3cn(C4CCN(C)C4)nc3C)c3ncn(C(C)C)c3n2)C[C@H]1F (stereo partly drawn) [Example 55, N-((3R,4R)-4-fluoro-1-(9-isopropyl-6-((3-methyl-1-(1-methylpyrrolidin-3-yl)-1H -pyrazol-4-yl)amino)-9H-purin-2-yl)pyrrolidin-3-yl)acrylamide]	2	9	3	3	273	–

More lines, in order of falling IC50 [2], values ahead:

IC50 [1] [nM]	IC50 [2] [nM]	IC50 [3] [nM]	IC50 [4] [nM]	IC50 [5] [nM]	IC50 [1, 6] [nM]	Compound
35	35	61	40	698	–	C=CC(=O)N(C)[C@H]1C[C@H](Oc2nc(Nc3ccc(N4CCN(C)CC4)cc3)c3ncn(C(C)C)c3n2)C1 [Example 29, N-((trans)-3-((9-isopropyl-6-((4-(4-methylpiperazin-1-yl)phenyl)amino)-9H-purin-2-yl)oxy)cyclobutyl)-N-methylacrylamide]
3	26	34	8	587	–	C=CC(=O)N[C@@H]1CN(c2nc(Nc3cnn(C)c3)c3ncn(C(C)C)c3n2)C[C@@H]1OC (single isomer, unassigned) [Example 50, N-((cis*)-1-(9-isopropyl-6((1-methyl-1H-pyrazol-4-yl)amino)-9H-purin-2-yl)-4-methoxypyrrolidin-3-yl)acrylamide]
3	21	2	8	787	–	C=CC(=O)N[C@@H]1CN(c2nc(Nc3cnn(C)c3)c3ncn(C(C)(C)C)c3n2)CC1F (stereo in doubt) [Example 49, N-((3R,4S)-1-(9-(tert-butyl)-6-((1-methyl-1H-pyrazol-4-yl)amino)-9H-purin-2-yl)-4-fluoropyrrolidin-3-yl)acrylamide]
34	17	15	104	647	–	C=CC(=O)N[C@@H]1CN(c2nc(Nc3cnn([C@@H]4CCN(C)C4)c3C)c3ncn(C(C)C)c3n2)C[C@H]1F [Example 85, N-((3R,4R)-4-fluoro-1-(9-isopropyl-6-((5-methyl-1-((R)-1-methylpyrrolidin-3-yl) -1H-pyrazol-4-yl)amino)-9H-purin-2-yl)pyrrolidin-3-yl)acrylamide]
–	14	18	8	181	8	C=CC(=O)N1C[C@@H]2CN(c3nc(Nc4ccc(N5CCN(C)CC5)cc4)c4ncn(C(C)C)c4n3)C[C@@H]2C1 [Example 21, 1-((cis)-5-(9-isopropyl-6-((4-(4-methylpiperazin-1-yl)phenyl)amino)-9H-purin-2-yl)hexahydropyrrolo[3,4-c]pyrrol-2(1H)-yl)prop-2-en-1-one]

From US9290496B2, “Purine derivatives” (PFIZER INC., priority 2013, dated 2016)
